In patent US20150344444A1, “BET-PROTEIN-INHIBITING DIHYDROXYQUINOXALINONES” (BAYER PHARMA AKTIENGESELLSCHAFT, priority 2012, published 2015):

Each molecule was assayed against T1, BRD4 Bromo Domain 2 [BRD4(2)] (Homo sapiens, UniProt O60885) (assay: BRD4(2)/acetylated peptide H4 binding assay (TR-FRET)). Settings: inhibition of interaction between His6-tagged BRD4(2) (amino acids 357-445) and acetylated histone H4 peptide.
T1 construct: N-terminally His6-tagged BRD4(2) (amino acids 357-445); made in house; host or cells: E. coli
Excerpt: Protein-Protein Interaction Assay: BRD4/Acetylated Peptide H4 Binding Assay
2. Assay Description for BRD4 Bromo Domain 2 [BRD4(2)]
To assess the BRD4(2) binding strength of the substances described in this application, the ability thereof to inhibit the interaction between BRD4(2) and acetylated histone H4 in a dose-dependent manner was quantified.
For this purpose, a time-resolved fluorescence resonance energy transfer (TR-FRET) assay was used, which measures the binding between N-terminally His6-tagged BRD4(2) (amino acids 357-445) and a synthetic acetylated histone H4 (Ac-H4) peptide with sequence SGRGK(Ac)GGK(Ac)GLGK(Ac)GGAK(Ac)RHRKVLRDNGSGSK-biotin. The recombinant BRD4(2) protein produced in house according to Filippakopoulos et al., Cell, 2012, 149:214-231 was expressed in E. coli and purified by means of (Ni-NTA) affinity and (Sephadex G-75) size exclusion chromatography. The Ac-H4 peptide can be purchased, for example, from Biosyntan (Berlin, Germany).
In the assay, typically 11 different concentrations of each substance (0.1 nM, 0.33 nM, 1.1 nM, 3.8 nM, 13 nM, 44 nM, 0.15 μM, 0.51 μM, 1.7 μM, 5.9 μM and 20 μM) were analysed as duplicates on the same microtitre plate. For this purpose, 100-fold concentrated solutions in DMSO were prepared by serial dilutions (1:3.4) of a 2 mM stock solution into a clear, 384-well microtitre plate (Greiner Bio-One, Frickenhausen, Germany). From this, 50 nl were transferred into a black test plate (Greiner Bio-One, Frickenhausen, Germany). The test was started by the addition of 2 μl of a 2.5-fold concentrated BRD4(2) solution (final concentration typically 100 nM in the 5 μl of reaction volume) in aqueous assay buffer [50 mM HEPES pH 7.5, 50 mM sodium chloride (NaCl); 50 mM potassium fluoride (KF); 0.25 mM CHAPS and 0.05% serum albumin (BSA)] to the substances in the test plate. This was followed by a 10-minute incubation step at 22° C. for the pre-equilibration of putative complexes between BRD4(2) and the substances.
The mixture was then incubated in the dark at 22° C. for one hour and then at 4° C. for at least 3 hours and for no longer than overnight. The formation of BRD4(2)/Ac-H4 complexes was determined by the measurement of the resonance energy transfer from the streptavidin-Eu chelate to the anti-6His-XL665 antibody present in the reaction. For this purpose, the fluorescence emission was measured at 620 nm and 665 nm after excitation at 330-350 nm in a TR-FRET measuring instrument, for example a Rubystar or Pherastar (both from BMG Lab Technologies, Offenburg, Germany) or a Viewlux (Perkin-Elmer). The ratio of the emissions at 665 nm and at 622 nm was taken as an indicator of the amount of BRD4(2)/Ac-H4 complexes formed.
The data (ratios) obtained were normalized, with 0% inhibition corresponding to the mean from the measurements for a set of controls (typically 32 data points) in which all the reagents were present. In these, in place of test substances, 50 nl of DMSO (100%) were used Inhibition of 100% corresponded to the mean from the measurements for a set of controls (typically 32 data points) in which all the reagents except BRD4(2) were present. The IC50 was determined by regression analysis based on a 4-parameter equation (minimum, maximum, IC50, Hill; Y=max+(min−max)/(1+(X/IC50)Hill)).

IC50 [µM] | SMILES
0.357 | C[C@@H]1C(=O)N(C)c2ccc(Nc3ccc(C(=O)NCC4COC4)cc3)cc2N1C1CCCCCC1 [Example 25, 4-{[(3R)-4-cycloheptyl-1,3-dimethyl-2-oxo-1,2,3,4-tetrahydroquinoxalin-6-yl]amino}-N-(oxetan-3-ylmethyl)benzamide]
0.391 | C[C@@H]1C(=O)N(C)c2ccc(Nc3ccc(C(=O)NC4CCN(C)CC4)cc3)cc2N1C1CCOCC1 [Example 26, 4-{[(3R)-1,3-dimethyl-2-oxo-4-(tetrahydro-2H-pyran-4-yl)-1,2,3,4-tetrahydroquinoxalin-6-yl]amino}-N-(1-methylpiperidin-4-yl)benzamide]
0.419 | C[C@@H]1C(=O)N(C)c2ccc(Nc3ccc(C(=O)N4CCOCC4)cc3)cc2N1C1CCOCC1 [Example 27, (3R)-1,3-dimethyl-6-{[4-(morpholin-4-ylcarbonyl)phenyl]amino}-4-(tetrahydro-2H-pyran-4-yl)-3,4-dihydroquinoxalin-2(1H)-one]
0.513 | C[C@@H]1C(=O)N(C)c2ccc(Nc3ccc(C(=O)NCC4COC4)cc3)cc2N1C1CCOCC1 [Example 28, 4-{[(3R)-1,3-dimethyl-2-oxo-4-(tetrahydro-2H-pyran-4-yl)-1,2,3,4-tetrahydroquinoxalin-6-yl]amino}-N-(oxetan-3-ylmethyl)benzamide]
0.158 | C[C@@H]1C(=O)N(C)c2ccc(Nc3ccc(C(=O)N4CC5(COC5)C4)cc3)cc2N1C1CCOCC1 [Example 29]
0.351 | C[C@@H]1C(=O)N(C)c2ccc(Nc3ccc(C(=O)NCCN4CCN(C)CC4)cc3)cc2N1C1CCOCC1 [Example 30, 4-{[(3R)-1,3-dimethyl-2-oxo-4-(tetrahydro-2H-pyran-4-yl)-1,2,3,4-tetrahydroquinoxalin-6-yl]amino}-N-[2-(4-methylpiperazin-1-yl)ethyl]benzamide]
0.126 | C[C@@H]1C(=O)N(C)c2ccc(Nc3ccc(C(=O)N4CC5(CCS5(=O)=O)C4)cc3)cc2N1C1CCOCC1 [Example 31, (3R)-6-({4-[(1,1-dioxido-1-thia-6-azaspiro[3.3]hept-6-yl)carbonyl]phenyl}amino)-1,3-dimethyl-4-(tetrahydro-2H-pyran-4-yl)-3,4-dihydroquinoxalin-2(1H)-one]
0.482 | CC(=O)N1CCC(NC(=O)c2ccc(Nc3ccc4c(c3)N(C3CCOCC3)[C@H](C)C(=O)N4C)cc2)CC1 [Example 32, N-(1-acetylpiperidin-4-yl)-4-{[(3R)-1,3-dimethyl-2-oxo-4-(tetrahydro-2H-pyran-4-yl)-1,2,3,4-tetrahydroquinoxalin-6-yl]amino}benzamide]
0.383 | CC(C)N1CCN(C(=O)c2ccc(Nc3ccc4c(c3)N(C3CCOCC3)[C@H](C)C(=O)N4C)cc2)CC1 [Example 33]
0.238 | C[C@@H]1C(=O)N(C)c2ccc(Nc3ccc(C(=O)NC4CN(C)C4)cc3)cc2N1C1CCOCC1 [Example 34, 4-{[(3R)-1,3-dimethyl-2-oxo-4-(tetrahydro-2H-pyran-4-yl)-1,2,3,4-tetrahydroquinoxalin-6-yl]amino}-N-(1-methylazetidin-3-yl)benzamide]
0.217 | C[C@@H]1C(=O)N(C)c2ccc(Nc3ccc(C(=O)NC4CC4)cc3)cc2N1C1CCOCC1 [Example 35, N-cyclopropyl-4-{[(3R)-1,3-dimethyl-2-oxo-4-(tetrahydro-2H-pyran-4-yl)-1,2,3,4-tetrahydroquinoxalin-6-yl]amino}benzamide]
0.441 | COc1cc(C(=O)NC2CCN(C)CC2)ccc1Nc1ccc2c(c1)N(C1CCOCC1)[C@H](C)C(=O)N2C [Example 36, 4-{[(3R)-1,3-dimethyl-2-oxo-4-(tetrahydro-2H-pyran-4-yl)-1,2,3,4-tetrahydroquinoxalin-6-yl]amino}-3-methoxy-N-(1-methylpiperidin-4-yl)benzamide]
0.41 | COc1cc(C(=O)NC2CCC(N3CCN(CC4CC4)CC3)CC2)ccc1Nc1ccc2c(c1)N(C1CCOCC1)[C@H](C)C(=O)N2C (stereo partly drawn) [Example 37, N-{4-[4-(cyclopropylmethyl)piperazin-1-yl]cyclohexyl}-4-{[(3R)-1,3-dimethyl-2-oxo-4-(tetrahydro-2H-pyran-4-yl)-1,2,3,4-tetrahydroquinoxalin-6-yl]amino}-3-methoxybenzamide]
0.382 | COc1cc(C(=O)N2CCN(C)CC2)ccc1Nc1ccc2c(c1)N(C1CCOCC1)[C@H](C)C(=O)N2C [Example 38, (3R)-6-({2-methoxy-4-[(4-methylpiperazin-1-yl)carbonyl]phenyl}amino)-1,3-dimethyl-4-(tetrahydro-2H-pyran-4-yl)-3,4-dihydroquinoxalin-2(1H)-one]
0.048 | COc1ccc(CN2c3cc(Nc4ccc(S(=O)(=O)N(C)C)cc4)ccc3N(C)C(=O)[C@H]2C)cc1 [Example 41, 4-{[(3R)-4-(4-methoxybenzyl)-1,3-dimethyl-2-oxo-1,2,3,4-tetrahydroquinoxalin-6-yl]amino}-N,N-dimethylbenzenesulphonamide]
0.068 | COc1ccc(CN2c3cc(Nc4ccc(S(=O)(=O)N5CCOCC5)cc4)ccc3N(C)C(=O)[C@H]2C)cc1 [Example 42, (3R)-4-(4-methoxybenzyl)-1,3-dimethyl-6-{[4-(morpholin-4-ylsulphonyl)phenyl]amino}-3,4-dihydroquinoxalin-2(1H)-one]
0.054 | COc1ccc(CN2c3cc(Nc4ccc(S(=O)(=O)N5CCN(C)CC5)cc4)ccc3N(C)C(=O)[C@H]2C)cc1 [Example 43, (3R)-4-(4-methoxybenzyl)-1,3-dimethyl-6-({4-[(4-methylpiperazin-1-yl)sulphonyl]phenyl}amino)-3,4-dihydroquinoxalin-2(1H)-one]
0.073 | COc1ccc(CN2c3cc(Nc4ccc(S(=O)(=O)N5CCN(C(C)C)CC5)cc4)ccc3N(C)C(=O)[C@H]2C)cc1 [Example 44, (3R)-4-(4-methoxybenzyl)-1,3-dimethyl-6-[(4-{[4-(propan-2-yl)piperazin-1-yl]sulphonyl}phenyl)amino]-3,4-dihydroquinoxalin-2(1H)-one]
0.083 | C[C@@H]1C(=O)N(C)c2ccc(Nc3ccc(S(=O)(=O)N(C)C)cc3)cc2N1C1CCCCCC1 [Example 45, 4-{[(3R)-4-cycloheptyl-1,3-dimethyl-2-oxo-1,2,3,4-tetrahydroquinoxalin-6-yl]amino}-N,N-dimethylbenzenesulphonamide]
0.148 | C[C@@H]1C(=O)N(C)c2ccc(Nc3ccc(S(=O)(=O)N(C)C)cc3)cc2N1C1CCOCC1 [Example 46, 4-{[(3R)-1,3-dimethyl-2-oxo-4-(tetrahydro-2H-pyran-4-yl)-1,2,3,4-tetrahydroquinoxalin-6-yl]amino}-N,N-dimethylbenzenesulphonamide]
0.134 | C[C@@H]1C(=O)N(C)c2ccc(Nc3ccc(S(=O)(=O)N4CCOCC4)cc3)cc2N1C1CCOCC1 [Example 47, (3R)-1,3-dimethyl-6-{[4-(morpholin-4-ylsulphonyl)phenyl]amino}-4-(tetrahydro-2H-pyran-4-yl)-3,4-dihydroquinoxalin-2(1H)-one]
0.112 | C[C@@H]1C(=O)N(C)c2ccc(Nc3ccc(S(=O)(=O)N4CCN(C)CC4)cc3)cc2N1C1CCOCC1 [Example 48, (3R)-1,3-dimethyl-6-({4-[(4-methylpiperazin-1-yl)sulphonyl]phenyl}amino)-4-(tetrahydro-2H-pyran-4-yl)-3,4-dihydroquinoxalin-2(1H)-one]
